ChEMBL document CHEMBL3507680, “University of Dundee, Gates Library screen for HepG2 cell viability”

Test: Human HepG2 cell viability assay in 384 well format
Assay type: toxicity, cell-based
Set-up: dose 125 nL, time 70.5 hour; cytotoxicity at 70.5 h: concentration not given beside the values
Conditions: HepG2 cells, read-out: Inhibition
Molecule `CCOCCn1c(=O)n(Cc2ccc(F)cc2)c2ncc(C(=O)O)cc21` has a cytotoxicity at 70.5 h of -4.53%. Molecule `COCCn1cc(NC(=O)C(C)CCc2ccccc2F)ccc1=O` (stereo not given) has a cytotoxicity at 70.5 h of -11.1%. For `Cc1cc(C)n(CC2CCCN2C(=O)c2nccc3ccccc23)n1` (stereo not given), the cytotoxicity at 70.5 h was -0.984%. In the case of `O=C(NCc1nncn1C1CC1)C1(c2ccccc2)CCOCC1`, the cytotoxicity at 70.5 h is reported as -6.33%. For `Cc1nc(C2CCN(C(C)C)CC2)sc1Br`, the cytotoxicity at 70.5 h was -2.12%. For `N#Cc1cn(C2CC2)c(=O)n(Cc2noc(-c3cccs3)n2)c1=O`, the cytotoxicity at 70.5 h was -4.93%. Work on `Cc1nc2sccn2c1CNc1cc(C(=O)O)ccc1F` yielded a cytotoxicity at 70.5 h of -7.72%. With `CN(C)C(=O)N1C[C@H]2CCC[C@@]2(COc2ccccn2)C1` the cytotoxicity at 70.5 h was -8.44%. `Cc1nccn1C1CCCN(C(=O)c2cc3ccccc3[nH]2)C1` (stereo not given) showed a cytotoxicity at 70.5 h of 42.8%. With `Cc1ccc(OCC(=O)N2CCCC(n3nc(C)nc3C)C2)cc1` (stereo not given) the cytotoxicity at 70.5 h was -8.6%. In the case of `CC(C)c1nc(C(=O)N2C[C@H](C(C)C)[C@@H](N)C2)cs1`, the cytotoxicity at 70.5 h is reported as -0.955%. For `CCOCCCC(=O)N1CCN(c2cccc(OC)c2)C(C)C1` (stereo not given), the cytotoxicity at 70.5 h was 12.3%. In the case of `O=C(NC1CCCCC1)c1ccc(COCC(F)(F)F)o1`, the cytotoxicity at 70.5 h is reported as 19.8%. `COCC(=O)N1Cc2nccn2CC(COc2cccnc2)C1` (stereo not given) gave a cytotoxicity at 70.5 h of -14.4%. Molecule `CCCc1noc(C2CC(=O)N(Cc3ccccc3)C2)n1` (stereo not given) has a cytotoxicity at 70.5 h of -8.97%. Molecule `CN(C)CCOCC1CN(Cc2cccc(F)c2)Cc2nccn2C1` (stereo not given) has a cytotoxicity at 70.5 h of -4.81%. For `CCc1cnc2c(c1Nc1ccccc1OC)c(=O)n(C)c(=O)n2C`, the cytotoxicity at 70.5 h was 5.02%. Molecule `O=C(NCc1cccs1)[C@@H]1CC[C@@H]2[C@@H](CCN2c2ncccn2)O1` has a cytotoxicity at 70.5 h of -19.1%. `Cc1nccn1CCCC(=O)Nc1nc(C(C)C)nn1C` gave a cytotoxicity at 70.5 h of 10.2%. For `COc1ccc(CNC(=O)N2CCCN(CC3CCCCC3)CC2)cn1`, the cytotoxicity at 70.5 h was -5.17%. Work on `COc1ncccc1C1CC(=O)Nc2cc(NS(C)(=O)=O)ccc21` (stereo not given) yielded a cytotoxicity at 70.5 h of -9.6%. Molecule `O=S(=O)(c1ccccc1)N1CCC2(CCCN2CC2CCCC2)C1` (stereo not given) has a cytotoxicity at 70.5 h of -5.67%. In the case of `CCOC1CCN(C(=O)NCCc2ccn(-c3ccccc3)n2)CC1`, the cytotoxicity at 70.5 h is reported as -2.77%. `CCC1CCCN(Cc2nc3ccccc3c(=O)[nH]2)C1` (stereo not given) gave a cytotoxicity at 70.5 h of -14%. In the case of `CCn1ncc2c1C(COC)CN(S(=O)(=O)C1CC1)C2` (stereo not given), the cytotoxicity at 70.5 h is reported as -8.31%. Work on `Fc1cnccc1CN1CCC2(CCN2c2ncccn2)C1` (stereo not given) yielded a cytotoxicity at 70.5 h of -7.95%. Molecule `Cc1noc(C)c1C(=O)Nc1ccc2ncn(CC(C)C)c(=O)c2c1` has a cytotoxicity at 70.5 h of 50.5%. Work on `O=C(c1cn(-c2cc(N3CCSCC3)ncn2)cn1)N1CCSCC1` yielded a cytotoxicity at 70.5 h of -1.64%. Molecule `CCc1ccc(CN(CCCn2ccnc2)Cc2ccc(C)s2)o1` has a cytotoxicity at 70.5 h of 21.1%. With `CCOc1ccccc1CC(=O)N1CCCC(c2ncc[nH]2)C1` (stereo not given) the cytotoxicity at 70.5 h was -0.431%. Molecule `O=C(c1cc(Cl)c[nH]1)N(CCCO)Cc1cccnc1` has a cytotoxicity at 70.5 h of -8.59%. In the case of `CCCS(=O)(=O)N1CCC2(CC1)COCCN(C(C)=O)C2`, the cytotoxicity at 70.5 h is reported as -4.27%. In the case of `Cc1ccc(CN(C)C(=O)NCC(=O)NC(C)(C)C)s1`, the cytotoxicity at 70.5 h is reported as -3.18%. With `COc1ccc(-n2ccc(C(=O)N(CCN(C)C)C(C)C)n2)cc1` the cytotoxicity at 70.5 h was -10.3%. For `Cc1cnn(C2CN(CC(=O)NCCCc3ccccc3)C2)c1`, the cytotoxicity at 70.5 h was 24.2%. In the case of `O=C1CCCN1Cc1ncn2c1CN(S(=O)(=O)c1cccs1)CCC2`, the cytotoxicity at 70.5 h is reported as -1.28%. `O=C(CCNS(=O)(=O)c1ccc(Cl)cc1)NCc1ccoc1` gave a cytotoxicity at 70.5 h of -5.84%. In the case of `Cc1cc(C[S+]([O-])Cc2ccccc2C)no1` (stereo not given), the cytotoxicity at 70.5 h is reported as -8.16%. With `Cc1cccc(N2CCN(CCC(=O)NCc3cccnc3)CC2)c1` the cytotoxicity at 70.5 h was -0.687%. With `Cc1nc(CCCNC(=O)Nc2cc(F)cc(F)c2)n[nH]1` the cytotoxicity at 70.5 h was -11.9%. In the case of `Cc1occc1C(=O)N1CC[C@@H]2[C@@H](CO[C@H]2CNS(C)(=O)=O)C1`, the cytotoxicity at 70.5 h is reported as -1.5%. With `COc1ccccc1OCC(=O)Nc1ncccc1OC(F)F` the cytotoxicity at 70.5 h was -7.67%. With `CN(C(=O)NCCCN1CCCC1)C1CCN(c2ccccc2)C1=O` (stereo not given) the cytotoxicity at 70.5 h was 4.81%. `COC(=O)CSc1nnc(CCNC(=O)OC(C)(C)C)o1` gave a cytotoxicity at 70.5 h of -4.92%. Molecule `Cc1cc(C(=O)N2CCc3nc4sc(C)cc4c(=O)n3CC2)on1` has a cytotoxicity at 70.5 h of -2.99%. `CCNC(=O)c1ccc(NC(=O)N(C)Cc2cc(C)on2)cc1` showed a cytotoxicity at 70.5 h of -4.32%. With `N#Cc1cccc(CN2C[C@@H](NC(=O)C3CC3)[C@H]3OCCC[C@H]32)c1` the cytotoxicity at 70.5 h was -12.1%. `CCc1ncc(CN(C)C(=O)Nc2cccnc2N2CCCC2)s1` showed a cytotoxicity at 70.5 h of 0.712%. Molecule `CC(C)n1cc(CN2CCCN(C(=O)CC3CCCCC3)CC2)cn1` has a cytotoxicity at 70.5 h of -0.435%. Work on `CC(NCC1=Cc2cc(Cl)ccc2OC1)c1nnc2n1CCCC2` (stereo not given) yielded a cytotoxicity at 70.5 h of -3.35%. Work on `CN(C)S(=O)(=O)N1CCN(C(=O)c2ccc3ccn(C)c3c2)CC1` yielded a cytotoxicity at 70.5 h of -7.35%. Molecule `Cc1nc(CN2C[C@@H]3CN(C(=O)c4cccn4C)C[C@@H]3C2)cs1` has a cytotoxicity at 70.5 h of -6.14%. `O=C(C1CCC1)N1CCC2(CC1)OCCO2` showed a cytotoxicity at 70.5 h of -7.76%. For `COCC(=O)NCC[C@H]1CC(C)(C)Oc2ccccc21`, the cytotoxicity at 70.5 h was -3.02%. With `O=C(Nc1ccc(F)cc1-c1nc(C2CC2)no1)N1CC[C@@H](O)C1` the cytotoxicity at 70.5 h was -6.37%. In the case of `Cn1cc(S(=O)(=O)N2CCN(S(=O)(=O)c3ccc(Br)s3)CC2)cn1`, the cytotoxicity at 70.5 h is reported as -8.9%. For `CNC(=O)NC(=O)C(NCc1ccccc1)c1ccccc1` (stereo not given), the cytotoxicity at 70.5 h was 17.9%. `CN1C[C@@H](C(=O)N2CCOCC2)[C@@]2(CCc3ccccc3C(=O)N2)C1` gave a cytotoxicity at 70.5 h of -1.75%. In the case of `CSc1ccc(C(=O)N2C[C@H]3CC[C@@H]2CN(Cc2cccnc2)C3)cc1`, the cytotoxicity at 70.5 h is reported as -5.35%. In the case of `Cn1ccc(C(=O)N2CCOC(c3ccccc3)C2)cc1=O` (stereo not given), the cytotoxicity at 70.5 h is reported as -7.42%. For `CCc1cnc(C)nc1NCc1nc(COC)no1`, the cytotoxicity at 70.5 h was -6.43%. In the case of `O=C(NCc1ccc(Cl)cc1)N1CCN(CC(O)C2CC2)CC1` (stereo not given), the cytotoxicity at 70.5 h is reported as -8.1%. Molecule `CS(=O)(=O)CCn1ccc(NC(=O)Cc2ccccc2F)n1` has a cytotoxicity at 70.5 h of 3.54%. For `CSc1ncccc1C(=O)N1CCC2(CC1)OCCCC2O` (stereo not given), the cytotoxicity at 70.5 h was -3.78%. `Cc1cc(C(=O)NCC2(N(C)C)CCCC2)c(C)n1-c1cccnc1` gave a cytotoxicity at 70.5 h of -0.689%. Work on `CCn1ncc2c1C(COCC1CC1)N(C(=O)c1ccncn1)CC2` (stereo not given) yielded a cytotoxicity at 70.5 h of -11.3%. With `COCc1cn(CC2CCN(Cc3nc(C)c[nH]3)CC2)nn1` the cytotoxicity at 70.5 h was -8.76%. In the case of `CCOCCS(=O)(=O)N(CC)Cc1ccc(Cl)s1`, the cytotoxicity at 70.5 h is reported as -11.4%. Molecule `CC(C)(C)c1n[nH]c(C2CN(CC3CCC3)CCO2)n1` (stereo not given) has a cytotoxicity at 70.5 h of -0.868%. In the case of `Cc1noc(C)c1CN1CCCC2(C1)CN(c1nccs1)CCO2` (stereo not given), the cytotoxicity at 70.5 h is reported as -2.38%. `Cc1cc(C)c(C(=O)N2CCOC(CCN(C)C)C2)o1` (stereo not given) showed a cytotoxicity at 70.5 h of -14.2%. `CCC(CO)N(Cc1cccnc1)C(=O)c1ccc(C(F)(F)F)nc1O` (stereo not given) gave a cytotoxicity at 70.5 h of -18.7%. With `CC(C)n1ccnc1C1CCN(C(=O)c2ccccc2)CC1` the cytotoxicity at 70.5 h was 20.7%. For `COc1cccc(C(=O)N(C)Cc2ncc(C)c(OC)c2C)c1OC`, the cytotoxicity at 70.5 h was -0.629%. For `CN(C)c1cc(C(=O)NCC2(c3ccc(F)cc3)CC2)ccn1`, the cytotoxicity at 70.5 h was -1.65%. Molecule `Cc1ccc(S(=O)(=O)N2C[C@@H]3C[C@@H](NC(=O)C(C)(C)C)[C@@H]3C2)cc1` has a cytotoxicity at 70.5 h of -16.5%. With `Cc1cnc(C(=O)N2CC[C@H]3C[C@@H](c4nc(C)cs4)O[C@@H]3C2)cn1` the cytotoxicity at 70.5 h was 7.61%. `CN(C)C(=O)C1(c2cnccn2)CCCN1C(=O)Cc1ccsc1` (stereo not given) gave a cytotoxicity at 70.5 h of -5.5%. For `CCC(CNS(N)(=O)=O)Oc1ccccc1F` (stereo not given), the cytotoxicity at 70.5 h was -7.45%. `CC(CNC(=O)NCc1ccsc1)CC1(C)OCCO1` (stereo not given) showed a cytotoxicity at 70.5 h of -8.79%.
